Reference: ChEMBL document CHEMBL5120875, “Discovery of diarylheptanoids that activate α7 nAchR-JAK2-STAT3 signaling in macrophages with anti-inflammatory activity in vitro and in vivo” (Bioorg Med Chem, 2022)
The source made the active and inactive calls. The rule behind the calls is not given here.

Columns and labels:
RAW264.7 [1] = assay: Antiinflammatory activity in mouse RAW264.7 cells assessed as inhibition of LPS-induced IL-6 production at 10 uM preincubated for 2 hrs followed by LPS-stimulation for 24 hrs by ELISA; format: functional, cell-based; conditions: time 26.0 hrs
RAW264.7 [2] = assay: Activation of NF-kappaB signalling pathway in mouse RAW264.7 cells assessed as suppression of LPS-induced IkappaBalpha phosphorylation pretreated with compound for 2 hrs followed by LPS-stimulation for 30 mins by Western blot analysis; format: cell-based; conditions: filed as activator, dose 0.2-5 µM, time 2.5 hrs
RAW264.7 [3] = assay: Antiinflammatory activity in mouse RAW264.7 cells assessed as inhibition of LPS-induced IL-1beta production at 10 uM preincubated for 2 hrs followed by LPS-stimulation for 24 hrs by ELISA; format: functional, cell-based; conditions: time 26.0 hrs
RAW264.7 [4] = assay: Antiinflammatory activity in LPS-induced mouse RAW264.7 cells assessed as enhancement of STAT3 phosphorylation at 0.2 to 5 uM pretreated with alpha7 nAChR antagonist alpha-bungarotoxin for 1 hr followed by compound treatment for 2 hrs and further stimulated with LPS for 30 mins by Western blot analysis; format: functional, cell-based; conditions: dose 0.2-5 µM, time 2.5 hrs
Peritoneal macrophage = assay: Antiinflammatory activity in mouse peritoneal macrophages assessed as reduction in LPS-induced NO production at 0.2 to 5 uM preincubated for 2 hrs followed by LPS-stimulation for 22 hrs by Griess reagent based assay; format: functional, cell-based; conditions: dose 0.2-5 µM, time 24.0 hrs
RAW264.7 [5] = assay: Inhibition of LPS-induced NO production in mouse RAW264.7 cells at 5 uM preincubated with compound for 2 hrs followed by LPS stimulation for 24 hrs by Griess reagent based assay relative to control; format: functional; conditions: time 26 hrs
RAW264.7 [6] = assay: Antiinflammatory activity in LPS-induced mouse RAW264.7 cells assessed as enhancement of JAK2 phosphorylation pretreated with compound for 2 hrs followed by LPS-stimulation and measured after 30 mins by Western blot analysis; format: functional, cell-based; conditions: dose 0.2-5 µM, time 2.5 hrs, DDE = dose-dependent effect
RAW264.7 [7] = assay: Antiinflammatory activity in mouse RAW264.7 cells assessed as inhibition of LPS-induced iNOS mRNA expression preincubated for 2 hrs followed by LPS stimulation for 24 hrs by qRT-PCR analysis; format: functional, cell-based; conditions: dose 0.2-5 µM, time 26.0 hrs, DDE = dose-dependent effect
RAW264.7 [8] = assay: Activation of NF-kappaB signalling pathway in mouse RAW264.7 cells assessed as decrease in LPS-induced AKT phosphorylation at 0.2 to 5 uM pretreated with compound for 2 hrs followed by LPS-stimulation for 30 mins by Western blot analysis; format: cell-based; conditions: filed as activator, dose 0.2-5 µM, time 2.5 hrs
RAW264.7 [9] = assay: Antiinflammatory activity in mouse RAW264.7 cells assessed as inhibition of LPS-induced IL-6 production preincubated for 2 hrs followed by LPS-stimulation for 24 hrs by ELISA; format: functional, cell-based; conditions: dose 0.2-5 µM, time 26.0 hrs, DDE = dose-dependent effect
RAW264.7 [10] = assay: Antiinflammatory activity in mouse RAW264.7 cells assessed as decrease in LPS-induced IL-1beta mRNA expression at 0.2 to 5 uM preincubated for 2 hrs followed by LPS-stimulation for 24 hrs by qRT-PCR analysis; format: functional, cell-based; conditions: dose 0.2-5 µM, time 26.0 hrs
RAW264.7 [11] = assay: Activation of NF-kappaB signalling pathway in mouse RAW264.7 cells assessed as suppression of LPS-induced IkappaBalpha degradation pretreated with compound for 2 hrs followed by LPS-stimulation for 30 mins by Western blot analysis; format: cell-based; conditions: filed as activator, dose 0.2-5 µM, time 2.5 hrs, DDE = dose-dependent effect
THP-1 [12] = assay: Antiinflammatory activity in human THP-1 monocytes assessed as reduction in LPS/Interferon-gamma NO production at 0.2 to 5 uM pretreated with PMA for 24 hrs followed by compound addition 2 hrs and stimulated with LPS/Interferon-gamma for 22 hrs by Griess reagent based assay; format: functional, cell-based; conditions: dose 0.2-5 µM
RAW264.7 [13] = assay: Antiinflammatory activity in mouse RAW264.7 cells assessed as decrease in LPS-induced IL-6 mRNA expression at 0.2 to 5 uM preincubated for 2 hrs followed by LPS-stimulation for 24 hrs by qRT-PCR analysis; format: functional, cell-based; conditions: dose 0.2-5 µM, time 26.0 hrs
THP-1 [14] = assay: Antiinflammatory activity in LPS/IFNgamma-stimulated human THP-1 monocytes assessed as inhibition of NO production pretreated with PMA for 24 hrs and incubated alpha-bungarotoxin for 1 hr followed by compound addition for 2 hrs and further stimulated with LPS/INF-gamma for 22 hrs by Griess reagent based assay; format: functional, cell-based
RAW264.7 [15] = assay: Cytotoxicity against mouse RAW264.7 cells assessed as effect on cell viability at 5 uM incubated for 24 hrs by alamar blue reagent based fluorescence assay; format: toxicity; conditions: raw264.7, 24 h
RAW264.7 [16] = assay: Antiinflammatory activity in LPS-induced mouse RAW264.7 cells assessed as enhancement of JAK2 phosphorylation at 0.2 to 5 uM pretreated with alpha7 nAChR antagonist alpha-bungarotoxin for 1 hr followed by compound treatment for 2 hrs and further stimulated with LPS for 30 mins by Western blot analysis; format: functional, cell-based; conditions: dose 0.2-5 µM, time 2.5 hrs
RAW264.7 [17] = assay: Inhibition of LPS-induced NO production in mouse RAW264.7 cells preincubated with compound for 2 hrs followed by LPS stimulation for 24 hrs by Griess reagent based assay; format: functional, cell-based
RAW264.7 [18] = assay: Antiinflammatory activity in mouse RAW264.7 cells assessed as inhibition of LPS-induced iNOS protein expression preincubated for 2 hrs followed by LPS stimulation for 24 hrs by qRT-PCR analysis; format: functional, cell-based; conditions: time 26.0 hrs, DDE = dose-dependent effect
[19] = molecular target: T1, Signal transducer and activator of transcription 1 (Mus musculus) (UniProt P42225); assay: Inhibition of LPS-induced STAT1 phosphorylation in mouse RAW264.7 cells pretreated with compound for 2 hrs followed by LPS-stimulation and measured after 30 mins by immunoblot analysis; format: cell-based; conditions: dose 0.2-5 µM, time 2.5 hrs, DDE = dose-dependent effect
T1 sequence (whole entry): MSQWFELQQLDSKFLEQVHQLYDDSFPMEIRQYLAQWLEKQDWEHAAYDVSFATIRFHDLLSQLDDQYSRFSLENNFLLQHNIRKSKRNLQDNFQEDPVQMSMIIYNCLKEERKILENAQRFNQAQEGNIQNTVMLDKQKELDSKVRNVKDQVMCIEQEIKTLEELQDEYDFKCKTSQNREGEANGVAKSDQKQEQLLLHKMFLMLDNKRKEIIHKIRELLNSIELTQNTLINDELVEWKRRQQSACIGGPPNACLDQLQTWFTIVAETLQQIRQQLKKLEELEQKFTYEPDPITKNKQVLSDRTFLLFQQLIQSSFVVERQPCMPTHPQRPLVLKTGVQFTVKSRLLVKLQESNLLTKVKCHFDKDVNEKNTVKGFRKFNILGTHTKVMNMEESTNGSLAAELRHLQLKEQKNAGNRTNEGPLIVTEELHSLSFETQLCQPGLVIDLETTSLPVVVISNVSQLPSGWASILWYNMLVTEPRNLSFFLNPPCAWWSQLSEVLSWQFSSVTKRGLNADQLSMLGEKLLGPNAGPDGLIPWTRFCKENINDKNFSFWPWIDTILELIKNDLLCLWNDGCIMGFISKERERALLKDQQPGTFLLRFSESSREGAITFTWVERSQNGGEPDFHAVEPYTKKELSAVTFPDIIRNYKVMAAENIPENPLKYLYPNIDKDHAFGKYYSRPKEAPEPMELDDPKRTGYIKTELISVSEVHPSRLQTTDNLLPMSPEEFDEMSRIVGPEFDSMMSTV

[20] = molecular target: Neuronal acetylcholine receptor subunit alpha-7 (Mus musculus) (UniProt P49582); assay: Binding affinity to alpha7 nAChR in mouse RAW264.7 cells assessed as increase in thermal stability at 200 uM incubated for 30 min by CETSA; format: cell-based; conditions: filed as agonist
Neuronal acetylcholine receptor subunit alpha-7 (Mus musculus), sequence (P49582 whole entry): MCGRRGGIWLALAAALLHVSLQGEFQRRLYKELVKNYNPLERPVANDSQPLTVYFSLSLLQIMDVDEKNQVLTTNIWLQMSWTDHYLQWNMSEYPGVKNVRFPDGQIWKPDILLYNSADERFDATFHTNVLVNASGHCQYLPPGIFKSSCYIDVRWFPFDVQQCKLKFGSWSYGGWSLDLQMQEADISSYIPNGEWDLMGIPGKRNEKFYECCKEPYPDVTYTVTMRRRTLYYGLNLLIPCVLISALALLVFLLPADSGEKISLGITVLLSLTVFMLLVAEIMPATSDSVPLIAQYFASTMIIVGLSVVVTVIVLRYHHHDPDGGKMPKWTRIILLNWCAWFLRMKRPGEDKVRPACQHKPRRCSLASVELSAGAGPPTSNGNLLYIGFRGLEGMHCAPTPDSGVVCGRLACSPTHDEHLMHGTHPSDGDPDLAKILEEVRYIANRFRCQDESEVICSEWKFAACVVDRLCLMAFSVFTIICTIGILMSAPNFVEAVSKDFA

RAW264.7 [21] = assay: Antiinflammatory activity in LPS-induced mouse RAW264.7 cells assessed as enhancement of STAT3 phosphorylation pretreated with compound for 2 hrs followed by LPS-stimulation and measured after 30 mins by Western blot analysis; format: functional, cell-based; conditions: dose 0.2-5 µM, time 2.5 hrs, DDE = dose-dependent effect
RAW264.7 [22] = assay: Antiinflammatory activity in mouse RAW264.7 cells assessed as inhibition of LPS-induced IL-1beta production preincubated for 2 hrs followed by LPS-stimulation for 24 hrs by ELISA; format: functional, cell-based; conditions: dose 0.2-5 µM, time 26.0 hrs, DDE = dose-dependent effect
Mus musculus [23] = assay: Antiinflammatory activity in LPS-induced ICR sepsis mouse model assessed as attenuation of LPS-induced inflammatory cell infiltration at 5 mg/kg, ip pretreated with compound for 5 days followed by LPS stimulation and measured 2 hrs post last dose by hematoxylin and eosin staining based microscopic analysis; format: functional, organism-based; conditions: time 5.0 day
Mus musculus [24] = assay: Antiinflammatory activity in LPS-induced ICR sepsis mouse model assessed as attenuation of LPS-induced lung damage at 5 mg/kg, ip pretreated with compound for 5 days followed by LPS stimulation and measured 2 hrs post last dose by hematoxylin and eosin staining based microscopic analysis; format: functional, organism-based; conditions: time 5.0 day
RAW264.7 [25] = assay: Antiinflammatory activity in LPS-stimulated mouse RAW264.7 cells assessed as inhibition of NO production at 0.2 to 5 uM pretreated with alpha7 nAChR antagonist alpha-bungarotoxin for 1 hr followed by compound treatment for 2 hrs and further stimulated with LPS for […] reagent based assay; format: functional, cell-based; conditions: dose 0.2-5 µM
RAW264.7 [26] = assay: Antiinflammatory activity in LPS-stimulated mouse RAW264.7 cells assessed as inhibition of IkappaBalpha degradation at 0.2 to 5 uM pretreated with alpha7 nAChR antagonist, alpha-bungarotoxin for 1 hr followed by compound treatment for 2 hrs and further stimulated with LPS for 30 mins by Western blot analysis; format: functional, cell-based; conditions: dose 0.2-5 µM, time 2.5 hrs
Mus musculus [27] = assay: Antiinflammatory activity in LPS-induced ICR sepsis mouse model assessed as attenuation of LPS-induced inflammatory cell infiltration at 5 to 20 mg/kg, ip pretreated with compound for 5 days followed by LPS stimulation and measured 2 hrs post last dose by hematoxylin and eosin staining based microscopic analysis; format: functional, organism-based; conditions: dose 5-20 mg/kg, time 5.0 day
Mus musculus [28] = assay: Antiinflammatory activity in LPS-induced ICR sepsis mouse model assessed as suppression of LPS-induced serum interleukin-6 level at 5 to 20 mg/kg, ip pretreated with compound for 5 days followed by LPS stimulation and measured 2 hrs post last dose by ELISA analysis; format: functional, organism-based; conditions: dose 5-20 mg/kg, time 5.0 day
Mus musculus [29] = assay: Antiinflammatory activity in LPS-induced ICR sepsis mouse model assessed as high survival rate at 5 to 20 mg/kg, ip pretreated with compound for 5 days followed by LPS stimulation and measured 2 hrs post last dose; format: functional, organism-based; conditions: dose 5-20 mg/kg, time 5.0 day
Mus musculus [30] = assay: Antiinflammatory activity in LPS-induced ICR sepsis mouse model assessed as attenuation of LPS-induced lung damage at 5 to 20 mg/kg, ip pretreated with compound for 5 days followed by LPS stimulation and measured 2 hrs post last dose by hematoxylin and eosin staining based microscopic analysis; format: functional, organism-based; conditions: dose 5-20 mg/kg, time 5.0 day
Mus musculus [31] = assay: Antiinflammatory activity in LPS-induced ICR sepsis mouse model assessed as suppression of LPS-induced serum interleukin-1beta level at 5 to 20 mg/kg, ip pretreated with compound for 5 days followed by LPS stimulation and measured 2 hrs post last dose by ELISA analysis; format: functional, organism-based; conditions: dose 5-20 mg/kg, time 5.0 day

Structure (SMILES)	Activity (RAW264.7 [4])	inhibition at 5 µM (RAW264.7 [5]) [%]	Activity (RAW264.7 [6])	Activity (RAW264.7 [7])	Activity (RAW264.7 [8])	Activity (RAW264.7 [9])	Activity (RAW264.7 [10])	Activity (RAW264.7 [11])	Activity (RAW264.7 [13])	Activity (RAW264.7 [15])	Activity (RAW264.7 [2]; DDE = dose-dependent effect)	Activity (RAW264.7 [16])	IC50 (RAW264.7 [17]) [nM]	Activity (RAW264.7 [18])	inhibition [19]	Activity (RAW264.7 [21])	Activity (RAW264.7 [22])	further results
Cc1ccc(S(=O)(=O)/C=C/C#N)cc1																		Activity (RAW264.7 [1]): Active; Activity (RAW264.7 [2]): Active; Activity (RAW264.7 [3]): Active
COc1ccc(/C=C/C=C/C(=O)/C=C/c2ccc(OC)c(O)c2)c(OC)c1	Active	106	Dde	Dde	Active	Dde	Active	Dde	Active	Non-Toxic	Dde	Active	550	Dde	Dde	Dde	Dde	Activity (Peritoneal macrophage): Active; Activity (THP-1 [12]): Active; Activity (THP-1 [14]): Active; Activity [20]: Active
C[C@@H]1C[C@H]2[C@@H]3CCC4=CC(=O)C=C[C@]4(C)[C@@]3(F)[C@@H](O)C[C@]2(C)[C@@]1(O)C(=O)CO																		Activity (Mus musculus [23]): Active; Activity (Mus musculus [24]): Active
CC(=O)Oc1ccc(CC[C@H](CCCCc2ccccc2)OC(C)=O)cc1OC(C)=O	Active	93.2	Dde	Dde	Active	Dde	Active	Dde	Active	Non-Toxic	Dde	Active	320	Dde	Dde	Dde	Dde	Activity (RAW264.7 [25]): Active; Activity (RAW264.7 [26]): Active; Activity (Mus musculus [27]): Active; Activity (Mus musculus [28]): Active; Activity (Mus musculus [29]): Active; Activity (Mus musculus [30]): Active; Activity (Mus musculus [31]): Active
